From PubChem BioAssay AID272 (DTP/NCI, 2004)
Where “and” joins values, the source holds several entries; their conditions need not be identical. Equal values may be shown once. Records with an inconclusive call do not appear.

Test system: Lewis lung carcinoma i.m., BDF1 mice, T/C %
Experiment: NCI In Vivo Anticancer Drug Screen. Data for tumor model Lewis Lung Carcinoma (intramuscular) in B6D2F1 (BDF1) mice
Procedure, shortened: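 Mice carrying transplantable tumours received test compound. Survival or tumour size was recorded and expressed as the treated-group value (T) divided by the vehicle-treated control-group value (C).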

[1] = endpoint: median survival time, dose: 4.0 mg/kg/injection, schedule: Q01DX011 (ip), vehicle: saline, higher = longer survival

## CC(CN1CC(=O)NC(=O)C1)N1CC(=O)NC(=O)C1 (centres undefined)
endpoint: mean tumor weight, dose: 6.25 mg/kg/injection, schedule: Q01DX005 (ip), vehicle: Klucel (hydroxypropylcellulose) (HPC), higher = larger tumour
  T/C: 61 % of control
endpoint: mean tumor weight, dose: 6.25 mg/kg/injection, schedule: Q01DX009 (ip), vehicle: Klucel (hydroxypropylcellulose) (HPC), higher = larger tumour
  T/C: 49 % of control
endpoint: mean tumor weight, dose: 6.25 mg/kg/injection, schedule: Q01DX011 (ip), vehicle: Klucel (hydroxypropylcellulose) (HPC), higher = larger tumour
  T/C: 73 % of control
endpoint: mean tumor weight, dose: 6.25 mg/kg/injection, schedule: Q01DX017 (ip), vehicle: Klucel (hydroxypropylcellulose) (HPC), higher = larger tumour
  T/C: 57 % of control
endpoint: mean tumor weight, dose: 12.5 mg/kg/injection, schedule: Q01DX005 (ip), vehicle: Klucel (hydroxypropylcellulose) (HPC), higher = larger tumour
  T/C: 62 % of control
endpoint: mean tumor weight, dose: 12.5 mg/kg/injection, schedule: Q01DX009 (ip), vehicle: Klucel (hydroxypropylcellulose) (HPC), higher = larger tumour
  T/C: 59 % of control
endpoint: mean tumor weight, dose: 12.5 mg/kg/injection, schedule: Q01DX011 (ip), vehicle: Klucel (hydroxypropylcellulose) (HPC), higher = larger tumour
  T/C: 52 % of control
endpoint: mean tumor weight, dose: 12.5 mg/kg/injection, schedule: Q01DX011 (ip), vehicle: steriod suspending solution, higher = larger tumour
  T/C: 83 % of control and 85 % of control
endpoint: mean tumor weight, dose: 12.5 mg/kg/injection, schedule: Q01DX017 (ip), vehicle: Klucel (hydroxypropylcellulose) (HPC), higher = larger tumour
  T/C: 49 % of control
endpoint: mean tumor weight, dose: 25.0 mg/kg/injection, schedule: Q01DX005 (ip), vehicle: Klucel (hydroxypropylcellulose) (HPC), higher = larger tumour
  T/C: 50 % of control
endpoint: mean tumor weight, dose: 25.0 mg/kg/injection, schedule: Q01DX009 (ip), vehicle: Klucel (hydroxypropylcellulose) (HPC), higher = larger tumour
  T/C: 26 % of control
endpoint: mean tumor weight, dose: 25.0 mg/kg/injection, schedule: Q01DX011 (ip), vehicle: Klucel (hydroxypropylcellulose) (HPC), higher = larger tumour
  T/C: 39 % of control
endpoint: mean tumor weight, dose: 25.0 mg/kg/injection, schedule: Q01DX017 (ip), vehicle: Klucel (hydroxypropylcellulose) (HPC), higher = larger tumour
  T/C: 44 % of control
endpoint: mean tumor weight, dose: 25.0 mg/kg/injection, schedule: Q04DX003 (ip), vehicle: Klucel (hydroxypropylcellulose) (HPC), higher = larger tumour
  T/C: 99 % of control
endpoint: mean tumor weight, dose: 25.0 mg/kg/injection, schedule: Q04DX005 (ip), vehicle: Klucel (hydroxypropylcellulose) (HPC), higher = larger tumour
  T/C: 104 % of control
endpoint: mean tumor weight, dose: 50.0 mg/kg/injection, schedule: Q01DX005 (ip), vehicle: Klucel (hydroxypropylcellulose) (HPC), higher = larger tumour
  T/C: 49 % of control
endpoint: mean tumor weight, dose: 50.0 mg/kg/injection, schedule: Q01DX009 (ip), vehicle: Klucel (hydroxypropylcellulose) (HPC), higher = larger tumour
  T/C: 32 % of control
endpoint: mean tumor weight, dose: 50.0 mg/kg/injection, schedule: Q01DX011 (ip), vehicle: Klucel (hydroxypropylcellulose) (HPC), higher = larger tumour
  T/C: 14 % of control
endpoint: mean tumor weight, dose: 50.0 mg/kg/injection, schedule: Q04DX003 (ip), vehicle: Klucel (hydroxypropylcellulose) (HPC), higher = larger tumour
  T/C: 80 % of control
endpoint: mean tumor weight, dose: 50.0 mg/kg/injection, schedule: Q04DX005 (ip), vehicle: Klucel (hydroxypropylcellulose) (HPC), higher = larger tumour
  T/C: 85 % of control
endpoint: mean tumor weight, dose: 100.0 mg/kg/injection, schedule: Q01DX005 (ip), vehicle: Klucel (hydroxypropylcellulose) (HPC), higher = larger tumour
  T/C: 21 % of control
endpoint: mean tumor weight, dose: 100.0 mg/kg/injection, schedule: Q04DX003 (ip), vehicle: Klucel (hydroxypropylcellulose) (HPC), higher = larger tumour
  T/C: 70 % of control and 80 % of control
endpoint: mean tumor weight, dose: 100.0 mg/kg/injection, schedule: Q04DX005 (ip), vehicle: Klucel (hydroxypropylcellulose) (HPC), higher = larger tumour
  T/C: 78 % of control
endpoint: mean tumor weight, dose: 200.0 mg/kg/injection, schedule: Q04DX003 (ip), vehicle: Klucel (hydroxypropylcellulose) (HPC), higher = larger tumour
  T/C: 50 % of control and 58 % of control
endpoint: mean tumor weight, dose: 200.0 mg/kg/injection, schedule: Q04DX005 (ip), vehicle: Klucel (hydroxypropylcellulose) (HPC), higher = larger tumour
  T/C: 56 % of control
endpoint: mean tumor weight, dose: 400.0 mg/kg/injection, schedule: Q04DX003 (ip), vehicle: Klucel (hydroxypropylcellulose) (HPC), higher = larger tumour
  T/C: 6 % of control
endpoint: mean tumor weight, dose: 400.0 mg/kg/injection, schedule: Q04DX005 (ip), vehicle: Klucel (hydroxypropylcellulose) (HPC), higher = larger tumour
  T/C: 7 % of control
endpoint: median survival time, dose: 6.25 mg/kg/injection, schedule: Q01DX005 (ip), vehicle: Klucel (hydroxypropylcellulose) (HPC), higher = longer survival
  T/C: 111 % of control
endpoint: median survival time, dose: 6.25 mg/kg/injection, schedule: Q01DX009 (ip), vehicle: Klucel (hydroxypropylcellulose) (HPC), higher = longer survival
  T/C: 105 % of control
endpoint: median survival time, dose: 6.25 mg/kg/injection, schedule: Q01DX011 (ip), vehicle: Klucel (hydroxypropylcellulose) (HPC), higher = longer survival
  T/C: 117 % of control
endpoint: median survival time, dose: 6.25 mg/kg/injection, schedule: Q01DX017 (ip), vehicle: Klucel (hydroxypropylcellulose) (HPC), higher = longer survival
  T/C: 113 % of control
endpoint: median survival time, dose: 12.5 mg/kg/injection, schedule: Q01DX005 (ip), vehicle: Klucel (hydroxypropylcellulose) (HPC), higher = longer survival
  T/C: 96 % of control
endpoint: median survival time, dose: 12.5 mg/kg/injection, schedule: Q01DX009 (ip), vehicle: Klucel (hydroxypropylcellulose) (HPC), higher = longer survival
  T/C: 100 % of control
endpoint: median survival time, dose: 12.5 mg/kg/injection, schedule: Q01DX011 (ip), vehicle: Klucel (hydroxypropylcellulose) (HPC), higher = longer survival
  T/C: 92 % of control
endpoint: median survival time, dose: 12.5 mg/kg/injection, schedule: Q01DX017 (ip), vehicle: Klucel (hydroxypropylcellulose) (HPC), higher = longer survival
  T/C: 86 % of control
endpoint: median survival time, dose: 15.0 mg/kg/injection, schedule: Q01DX011 (ip), vehicle: carboxymethylcellulose (CMC), higher = longer survival
  T/C: 100 % of control
endpoint: median survival time, dose: 25.0 mg/kg/injection, schedule: Q01DX005 (ip), vehicle: Klucel (hydroxypropylcellulose) (HPC), higher = longer survival
  T/C: 94 % of control
endpoint: median survival time, dose: 25.0 mg/kg/injection, schedule: Q01DX009 (ip), vehicle: Klucel (hydroxypropylcellulose) (HPC), higher = longer survival
  T/C: 111 % of control
endpoint: median survival time, dose: 25.0 mg/kg/injection, schedule: Q01DX011 (ip), vehicle: Klucel (hydroxypropylcellulose) (HPC), higher = longer survival
  T/C: 98 % of control
endpoint: median survival time, dose: 25.0 mg/kg/injection, schedule: Q04DX003 (ip), vehicle: Klucel (hydroxypropylcellulose) (HPC), higher = longer survival
  T/C: 98 % of control
endpoint: median survival time, dose: 25.0 mg/kg/injection, schedule: Q04DX005 (ip), vehicle: Klucel (hydroxypropylcellulose) (HPC), higher = longer survival
  T/C: 103 % of control
endpoint: median survival time, dose: 30.0 mg/kg/injection, schedule: Q01DX011 (ip), vehicle: carboxymethylcellulose (CMC), higher = longer survival
  T/C: 105 % of control
endpoint: median survival time, dose: 50.0 mg/kg/injection, schedule: Q01DX005 (ip), vehicle: Klucel (hydroxypropylcellulose) (HPC), higher = longer survival
  T/C: 105 % of control
endpoint: median survival time, dose: 50.0 mg/kg/injection, schedule: Q01DX009 (ip), vehicle: Klucel (hydroxypropylcellulose) (HPC), higher = longer survival
  T/C: 94 % of control
endpoint: median survival time, dose: 50.0 mg/kg/injection, schedule: Q01DX011 (ip), vehicle: Klucel (hydroxypropylcellulose) (HPC), higher = longer survival
  T/C: 113 % of control
endpoint: median survival time, dose: 50.0 mg/kg/injection, schedule: Q04DX003 (ip), vehicle: Klucel (hydroxypropylcellulose) (HPC), higher = longer survival
  T/C: 96 % of control
endpoint: median survival time, dose: 50.0 mg/kg/injection, schedule: Q04DX005 (ip), vehicle: Klucel (hydroxypropylcellulose) (HPC), higher = longer survival
  T/C: 100 % of control
endpoint: median survival time, dose: 100.0 mg/kg/injection, schedule: Q01DX001 (ip), vehicle: other, higher = longer survival
  T/C: 89 % of control
endpoint: median survival time, dose: 100.0 mg/kg/injection, schedule: Q01DX001 (ip), vehicle: steriod suspending solution, higher = longer survival
  T/C: 93 % of control
endpoint: median survival time, dose: 100.0 mg/kg/injection, schedule: Q01DX005 (ip), vehicle: Klucel (hydroxypropylcellulose) (HPC), higher = longer survival
  T/C: 119 % of control
endpoint: median survival time, dose: 100.0 mg/kg/injection, schedule: Q04DX003 (ip), vehicle: Klucel (hydroxypropylcellulose) (HPC), higher = longer survival
  T/C: 90 % of control and 108 % of control (2×)
endpoint: median survival time, dose: 100.0 mg/kg/injection, schedule: Q04DX005 (ip), vehicle: Klucel (hydroxypropylcellulose) (HPC), higher = longer survival
  T/C: 101 % of control
endpoint: median survival time, dose: 200.0 mg/kg/injection, schedule: Q01DX001 (ip), vehicle: other, higher = longer survival
  T/C: 86 % of control
endpoint: median survival time, dose: 200.0 mg/kg/injection, schedule: Q01DX001 (ip), vehicle: steriod suspending solution, higher = longer survival
  T/C: 93 % of control
endpoint: median survival time, dose: 200.0 mg/kg/injection, schedule: Q04DX003 (ip), vehicle: Klucel (hydroxypropylcellulose) (HPC), higher = longer survival
  T/C: 111 % of control and 115 % of control and 117 % of control
endpoint: median survival time, dose: 200.0 mg/kg/injection, schedule: Q04DX005 (ip), vehicle: Klucel (hydroxypropylcellulose) (HPC), higher = longer survival
  T/C: 115 % of control
endpoint: median survival time, dose: 400.0 mg/kg/injection, schedule: Q01DX001 (ip), vehicle: other, higher = longer survival
  T/C: 76 % of control
endpoint: median survival time, dose: 400.0 mg/kg/injection, schedule: Q04DX003 (ip), vehicle: Klucel (hydroxypropylcellulose) (HPC), higher = longer survival
  T/C: 123 % of control
endpoint: median survival time, dose: 800.0 mg/kg/injection, schedule: Q01DX001 (ip), vehicle: other, higher = longer survival
  T/C: 78 % of control
endpoint: median survival time, dose: 800.0 mg/kg/injection, schedule: Q01DX001 (ip), vehicle: steriod suspending solution, higher = longer survival
  T/C: 87 % of control
endpoint: median survival time, dose: 800.0 mg/kg/injection, schedule: Q04DX003 (ip), vehicle: Klucel (hydroxypropylcellulose) (HPC), higher = longer survival
  T/C: 29 % of control

## FC(F)c1nc2nc(Cl)c(Cl)nc2[nH]1
[1]
  T/C: 92 % of control
endpoint: median survival time, dose: 64.0 mg/kg/injection, schedule: Q01DX011 (ip), vehicle: saline, higher = longer survival
  T/C: 96 % of control

## C[C@H]1CN1C1=CC(=O)C(N2C[C@@H]2C)=CC1=O
endpoint: median survival time, dose: 0.5 mg/kg/injection, schedule: Q01DX011 (ip), vehicle: saline with Tween-80, higher = longer survival
  T/C: 102 % of control
endpoint: median survival time, dose: 1.0 mg/kg/injection, schedule: Q01DX011 (ip), vehicle: saline with Tween-80, higher = longer survival
  T/C: 113 % of control
endpoint: median survival time, dose: 4.0 mg/kg/injection, schedule: Q01DX011 (ip), vehicle: saline with Tween-80, higher = longer survival
  T/C: 108 % of control

## CCCCCCCCCCCCCCCCCC[n+]1cccc(C(=O)N2CCOCC2)c1
endpoint: mean tumor weight (est.), dose: 2.0 mg/kg/injection, schedule: Q01DX011 (ip), vehicle: saline, higher = larger tumour
  T/C: 82 % of control
endpoint: mean tumor weight (est.), dose: 4.0 mg/kg/injection, schedule: Q01DX011 (ip), vehicle: saline, higher = larger tumour
  T/C: 83 % of control
endpoint: mean tumor weight (est.), dose: 8.0 mg/kg/injection, schedule: Q01DX011 (ip), vehicle: saline, higher = larger tumour
  T/C: 71 % of control
endpoint: mean tumor weight (est.), dose: 16.0 mg/kg/injection, schedule: Q01DX011 (ip), vehicle: saline, higher = larger tumour
  T/C: 64 % of control
endpoint: median survival time, dose: 2.0 mg/kg/injection, schedule: Q01DX011 (ip), vehicle: saline, higher = longer survival
  T/C: 101 % of control
[1]
  T/C: 103 % of control
endpoint: median survival time, dose: 8.0 mg/kg/injection, schedule: Q01DX011 (ip), vehicle: saline, higher = longer survival
  T/C: 105 % of control
endpoint: median survival time, dose: 16.0 mg/kg/injection, schedule: Q01DX011 (ip), vehicle: saline, higher = longer survival
  T/C: 94 % of control
